Measured values from patent US11452292B2, “Biofilm inhibitor and method of inhibiting biofilm” (NDSU Research Foundation, priority 2017, dated 2022).
In brackets after ≈: the same amount, converted by molar mass. Several values for one entry are separate records, joined by “and”; a condition that tells them apart may be missing. Identical values can stand only once.

Experiments:
E. coli CFT073 [1] = experiment: Biofilm in silicone tubing, EAA flush, ATP assay
S. marcescens [2] = experiment: Biofilm amounts, ATP assay, 24-well polystyrene plate; assay type: cell-based; conditions: Serratia marcescens, 30° C.
E. coli CFT073 [3] = experiment: Biofilm in silicone tubing, EAA flush, CV assay
B. thermospacta = experiment: Ground beef at 10° C., counts on STAA plates; assay type: cell-based, Brocothrix thermospacta; conditions: for Different from 0% (concentrations grouping differently from untreated control, Fisher's LSD and t-test): STAA, B. thermospacta
Experimental: Ground beef was obtained from the NDSU Meat Lab (ag.ndsu.edu/ansc/facilities/shepperd-arena). Precautionary steps that the slaughter facility undertakes to prevent microbial contamination of muscle meat include rinses of the hot carcass with hot water and 2.5% lactic acid (Birko Corp., Henderson, Colo.). Prior to cutting the meat, cattle halves are incubated for two weeks at a temperature between 0 and 2.2° C. For this Example, meat from two animals was ground within the NDSU Meat Lab and consecutively transferred on ice to the research lab where this Experiment was conducted. Approximately 4 pound of ground meat was obtained from two independent slaughter events (FIG. 6). These two original meat samples are referred to as biological replicates throughout this study. Each biological replicate was weighed into five aliquots of 200 g that were supplemented with 0 g, 0.1 g, 0.5 g, 1 g, or 5 g of liquid EAA (Alfa Aesar, Ward Hill Mass.). […]
Meat samples were removed from the freezer and incubated at 10° C. for five days; bacterial counts were determined on days 1, 3, and 5. […]
The content of each bag was transferred into a stomacher bag and Maximum Recovery Diluent (MRD) was added to a total of 50 ml. […] The total bacterial count of each homogenate was determined by plating serial dilutions on Plate Count Agar (PCA). Pseudomonads were determined with Pseudomonas Selective Agar (PSA), lactobacilli with All Purpose Tween agar (APT), B. thermospacta with Streptomycin sulphate, Thallous Acetate and Actidione agar (STAA), and Enterobacteriaceae with Violet Red Bile Glucose agar (VRBG). […]
Each experiment was performed in a total of 8 replicates (2 biological replicates×2 technical replicates×2 plate replicates). […] Data were analyzed for each EAA concentration and selective media and expressed as CFU/g of meat or log10 CFU/g of meat. […] Average and standard errors were calculated across the two biological and two technical replicates. […]

C. sakazakii [4] = experiment: Biofilm amounts, CV assay, 24-well polystyrene plate; assay type: cell-based; conditions: Cronobacter sakazakii, 37° C.
Excerpt: (§1) Data were expressed as OD600.

S. marcescens [5] = experiment: as above; assay type: cell-based; conditions: Serratia marcescens, 30° C.
Excerpt: as §1

rats = rats fed up to 300 mg/kg body weight of EAA every day for 28 days; cited from earlier work
Y. enterocolitica [6] = experiment: Biofilm in silicone tubing, EAA flush, ATP assay
C. sakazakii [7] = experiment: Biofilm amounts, ATP assay, 24-well polystyrene plate; assay type: cell-based; conditions: Cronobacter sakazakii, 37° C.
Y. enterocolitica [8] = experiment: as above; assay type: cell-based, Yersinia enterocolitica; conditions: for IC50: Yersinia enterocolitica, Y. enterocolitica
E. coli = conditions: cited from earlier work
S. enterica = assay type: cell-based, Salmonella enterica serovar Typhimurium
total bacterial count = experiment: Ground beef at 10° C., total bacterial count on PCA plates; assay type: cell-based; conditions: for total bacterial count in the presence of EAA: day 3, unsupplemented 9 log10; for Different from 0% (concentrations grouping differently from untreated control, Fisher's LSD and t-test): PCA, total bacterial count
Experimental: Ground beef was obtained from the NDSU Meat Lab (ag.ndsu.edu/ansc/facilities/shepperd-arena). Precautionary steps that the slaughter facility undertakes to prevent microbial contamination of muscle meat include rinses of the hot carcass with hot water and 2.5% lactic acid (Birko Corp., Henderson, Colo.). Prior to cutting the meat, cattle halves are incubated for two weeks at a temperature between 0 and 2.2° C. For this Example, meat from two animals was ground within the NDSU Meat Lab and consecutively transferred on ice to the research lab where this Experiment was conducted. Approximately 4 pound of ground meat was obtained from two independent slaughter events (FIG. 6). These two original meat samples are referred to as biological replicates throughout this study. Each biological replicate was weighed into five aliquots of 200 g that were supplemented with 0 g, 0.1 g, 0.5 g, 1 g, or 5 g of liquid EAA (Alfa Aesar, Ward Hill Mass.). A total of six aliquots of 10 g were produced from each 200 g aliquot to allow for two technical replicates and determination of bacterial counts at three different time points during the incubation period. Aliquots were stored in Ziploc bags at −20° C.
Meat samples were removed from the freezer and incubated at 10° C. for five days; bacterial counts were determined on days 1, 3, and 5. For one initial experiment, samples were removed after 1 h of incubation at 10° C. This aliquot is not included in FIG. 6.
The content of each bag was transferred into a stomacher bag and Maximum Recovery Diluent (MRD) was added to a total of 50 ml. Meat was homogenized in a Seward Stomacher 400 Circulator (Cole Parmer, Vernon Hills, Ill.). The total bacterial count of each homogenate was determined by plating serial dilutions on Plate Count Agar (PCA). Pseudomonads were determined with Pseudomonas Selective Agar (PSA), lactobacilli with All Purpose Tween agar (APT), B. thermospacta with Streptomycin sulphate, Thallous Acetate and Actidione agar (STAA), and Enterobacteriaceae with Violet Red Bile Glucose agar (VRBG). For the composition of these media, see TABLE 7 (BD: Becton Dickinson). Each serial dilution was plated onto two separate agar plates to allow for two plate replicates (FIG. 6).
Each experiment was performed in a total of 8 replicates (2 biological replicates×2 technical replicates×2 plate replicates). To prepare for analysis, the data sets were pre-processed by determining the averages for the 2 plate replicates. Data were analyzed for each EAA concentration and selective media and expressed as CFU/g of meat or log10 CFU/g of meat. The lower limit of detection was 49 CFU, which is the equivalent of 1.69 log10. This number was used for all experiments that yielded zero colonies from the undiluted homogenate. To determine log reductions, the log10 CFU/g of meat at a given concentration of EAA was subtracted from that obtained for the untreated control piece of meat. Average and standard errors were calculated across the two biological and two technical replicates. Statistical analysis was started with an Analysis of Variance (ANOVA) test that compared the means of the log10 CFU/g data across concentrations, days, and biological replicates to determine the main effects. For comparisons that determined statistically significant differences between the means (p-value below 0.05), Fisher's Least Significant Difference (LSD) test and a pairwise Student's t-test were performed as post hoc test to determine which of the groups were different from the others.

isolated bovine corneas = conditions: cited from earlier work
P. aeruginosa = experiment: Biofilm in silicone tubing, EAA flush, CV assay; conditions: 100 mg/ml EAA
Y. enterocolitica [9] = experiment: Viable bacteria (cell counts) within the biofilm; assay type: cell-based, Yersinia enterocolitica
S. aureus = experiment: Biofilm in silicone tubing, EAA flush, ATP assay; assay type: cell-based, Staphylococcus aureus
Excerpt: An AV Fistula Needle 17 Ga.

## CCOC(=O)CC(C)=O [EAA, ethyl acetoacetate]
E. coli CFT073 [1]; E. coli CFT073, 5 mg/ml EAA
  reduction in ATP content of the biofilm: ~100%
E. coli CFT073 [1]; E. coli CFT073, 100 mg/ml EAA
  percent reduction of ATP: 98.5%
S. marcescens [2]
  IC50: 5500 µg/mL (≈ 42.3 mM)
E. coli CFT073 [3]; E. coli CFT073, 5 mg/ml of EAA
  reduction in total biofilm biomass (CV), words: almost no reduction
E. coli CFT073 [3]; E. coli CFT073, 10 mg/ml EAA
  reduction in biofilm biomass (CV), words: No reduction
B. thermospacta; 0.5% w/w EAA, 3 days at 10° C.
  log reduction, Brocothrix thermospecta: 2.1
B. thermospacta; 0.5% EAA
  Different from 0% (concentrations grouping differently from untreated control, Fisher's LSD and t-test): 0.5%
B. thermospacta; 2.5% EAA
  Different from 0% (concentrations grouping differently from untreated control, Fisher's LSD and t-test): 2.5%
C. sakazakii [4]
  IC50: 700 µg/mL (≈ 5.38 mM)
S. marcescens [5]
  IC50: 5600 µg/mL (≈ 43 mM)
rats
  general health, hematology, serum, urine, renal function: did not result in any general health defects or changes in hematology, serum, urine, or renal function
Y. enterocolitica [6]; 1 mg/ml EAA
  reduction in ATP content in the biofilm: 71%
Y. enterocolitica [6]; 100 mg/ml EAA
  percent reduction of ATP: 105%
C. sakazakii [7]
  IC50: 310 µg/mL (≈ 2.38 mM)
Y. enterocolitica [8]; 25° C., 15 mg/ml of EAA
  biofilm reduction by the ATP assay, fold equivalent: 200 fold
  log ratio of biofilm reduction by the ATP assay: 2.3 log
Y. enterocolitica [8]; 37° C., 10 mg/ml EAA
  biofilm amounts quantified by the ATP assay: abolished
Y. enterocolitica [8]; 37° C., 10 mg/ml of EAA
  log reduction in biofilm amount, ATP assay: 2.04
  reduction in biofilm amount, ATP assay, fold equivalent: 110 fold
Y. enterocolitica [8]; 25° C.
  IC50: 2100 µg/mL (≈ 16.1 mM)
Y. enterocolitica [8]; 37° C.
  IC50: 4290 µg/mL (≈ 33 mM)
E. coli
  mutagenicity: a mutagenic effect could be detected
S. enterica; 0.5% EAA, 10° C.
  reduction in the bacterial counts of S. enterica: not observed
S. enterica; 0.5% w/w EAA, 3 days at 10° C.
  log reduction, Salmonella enterica serovar Typhimurium: 0.2
Total bacterial count; 0.5% EAA, 3 days at 10° C.
  log reduction, total bacterial count: 2.4
Total bacterial count; 0.5% of EAA, 1 day at 10° C.
  log reduction, total bacterial count: 0.65
Total bacterial count; 0.5% of EAA
  total bacterial count in the presence of EAA: 7.8 log10
Total bacterial count; 2.5% EAA, 5 days at 10° C.
  reduction of total bacterial count: 4.3 logs
Total bacterial count; 2.5% of EAA, 1 day at 10° C.
  log reduction, total bacterial count: 2.1
Total bacterial count; 2.5% of EAA
  total bacterial count in the presence of EAA: 6.6 log10
Total bacterial count; 0.5% EAA
  Different from 0% (concentrations grouping differently from untreated control, Fisher's LSD and t-test): 0.5%
Total bacterial count; 2.5% EAA
  Different from 0% (concentrations grouping differently from untreated control, Fisher's LSD and t-test): 2.5%
Isolated bovine corneas
  eye irritation: moderate eye irritation that was fully reversible after seven days
P. aeruginosa; first experiment
  reduction in biofilm biomass (CV), words: no reduction
P. aeruginosa; repeated experiment, untreated 0.78
  biofilm biomass from the CV assay after EAA: 0.24 OD600
Y. enterocolitica [9]; 25° C., 7.5 mg/ml EAA
  reduction of bacterial cell counts in the biofilm: 2.06 logs
Y. enterocolitica [9]; 25° C., 10 mg/ml EAA
  reduction of bacterial cell counts in the biofilm: 3.07 logs
Y. enterocolitica [9]; 37° C., 2.5 mg/ml EAA
  bacterial cell counts in the biofilm: did not show a reduction
Y. enterocolitica [9]; 37° C., 7.5 mg/ml EAA
  log reduction of bacterial cell counts in the biofilm: 2.06 logs
Y. enterocolitica [9]; 37° C., 10 mg/ml of EAA
  log reduction in live bacteria within the biofilm: 0.92
  reduction in live bacteria within the biofilm, fold equivalent: 8.3 fold
Y. enterocolitica [9]; Yersinia enterocolitica, Y. enterocolitica, 25° C., live bacteria in the biofilm, read-out: IC50, Live cells
  IC50: 3000 µg/mL (≈ 23.1 mM)
S. aureus; 100 mg/ml EAA
  percent reduction of ATP: 75% and 76%
S. aureus; 100 mg/ml of EAA, repeated experiment
  ATP assay of the biofilm at the end of the two week incubation: just about abolished the biofilm
